Reference: US4996223A, “New organic compounds having opioid properties” (priority 1986, dated 1991)
≈ marks a conversion by molar mass, not a printed value. Entries after “also recorded” stand apart in the source; their conditions may differ. Like-named read-outs stand apart in the source and are kept apart here.

Columns and labels:
[1] = tested on: mice; assay: animal or person; format: in vivo, mouse; conditions: for antagonism of analgesia by naloxone: analgesic tests (Hot Plate and Abdominal Constriction); for ED50: Mus musculus, read-out: ED50 Hot Plate
Description: (§1) Analgesic activity was assessed using two methods in mice--the Hot Plate Test and the Abdominal Constriction Test (acetic acid). The test drug was given by subcutaneous injection and the results expressed as ED50 with 95% confidence intervals.
(§2) ED50 and 95% confidence intervals.
(§3) mg/kg, subcutaneous injection.

[2] = tested on: opioid receptors of the guinea pig ileum; format: cell-based; conditions: for inhibition of electrically induced contractions / antagonism by naloxone / opioid (opiate-like) activity in vitro: words; for antagonism by naloxone: naloxone 0.5, 5 and 50 ng/ml (eseroline) or 5 and 50 ng/ml; for opioid (opiate-like) activity in vitro: isolated tissue preparations; for log dose ratio (±S.D.), shift by naloxone, ileum: mean of not less than 6 determinations; for enhancement of electrically induced contractions / excitatory stage: eseroline above 400 ng/ml in presence of naloxone; for evidence of cholinesterase inhibition on the ileum: inferred from enhancement of contractions
Description: Sections of guinea-pig ileum were set up for transmural stimulation under a resting tension of 0.75 g in Krebs solution bubbled with 5% carbon dioxide in oxygen at 37 degrees C according to the method of Kosterlitz and Watt (1968) Contractions were elicited from stainless steel electrodes, one of which was sited in the lumen at supramaximal voltage and a frequency of 0.05 Hz. Isometric contractions were recorded on a Rikadenki recorder. Potential agonists were added directly to the bath and the contact time was until maximum inhibition had occurred. The responses of the preparation in the presence of naloxone were examined with the naloxone present in the physiological solution. Results were expressed as percent inhibition. In each experiment a log dose effect relationship was determined using at least four concentrations in the absence of antagonist, and then in the presence of one or more concentrations of naloxone.
(§4) Eseroline was dissolved in minimal 0.1N hydrophloric acid and dilutions made with water. Salts were dissolved in water.

[3] = tested on: cholinesterase (guinea pig ileum as the enzyme source); assay: Anticholinesterase Test (method of Ellman, Courtney et al.); format: biochemical; conditions: concentrations up to 6.4 ug/ml where stated
Description: Anticholinesterase activity was assessed using the method of Ellman, Courtney et al., (1961) using guinea pig ileum as the enzyme source.

[4] = tested on: opioid receptors of the mouse vas deferens; format: cell-based; conditions: for log dose ratio (±S.D.), shift by naloxone, vas deferens: mean of not less than 6 determinations
Description: Vasa deferentia were removed and mounted in 1.2 ml tissue baths under a resting tension of 200 mg in Mg^2+ -free Krebs solution bubbled with a mixture of 95% oxygen and 5% carbon dioxide at 36 degrees C. The preparations were left for 1 hour to equilibriate. Contractions were elicited from platinum electrodes fused to the sides of the tissue bath using supramaximal voltage (usually above 100 V), a pulse width of lms and a frequency of 0.1 Hz. Isometric contractions were recorded on a Grass polygraph. As with the ileum, concentration effect relationships were determined in the absence then presence of naloxone.
as §4
The values are derived from individual comparisons of the percentage inhibition of the preparations in the presence of a concentration of naloxone and that in the same preparation in the absence of naloxone.

[5] = tested on: mice; assay: animal or person; format: in vivo; conditions: Mus musculus, sc, subcutaneous injection, 95% confidence intervals, read-out: ED50 Abdominal Constriction (Acetic acid)
Description: as §1, §2, §3

[6] = tested on: cholinesterase; conditions: cited from earlier work
[7] = relative to morphine; cited from earlier work
[8] = Naloxone 10 ng/ml (so in the source)

| Structure (SMILES) | antagonism of analgesia by naloxone ([1]; mice) | antagonist activity against morphine [2] | inhibition of electrically induced contractions ([2]; guinea pig ileum) | antagonism by naloxone ([2]; guinea pig ileum) | receptor selectivity / receptor population compared with morphine [2] | opioid (opiate-like) activity in vitro [2] | enhancement of electrically induced contractions / excitatory stage ([2]; guinea pig ileum) | evidence of cholinesterase inhibition on the ileum [2] | also measured |
| --- | --- | --- | --- | --- | --- | --- | --- | --- | --- |
| C=CCN1CC[C@]23c4c5ccc(O)c4O[C@H]2C(=O)CC[C@@]3(O)[C@H]1C5 [Naloxone, naloxone, reference compound] | effective antagonist |  |  |  |  |  |  |  |  |
| CN1c2ccc(O)cc2C23CCCCC12N(CC1CC1)CC3 (racemic) [1,2,3,4-tetrahydro-6-hydroxy-9-methyl-10-cyclopropylmethyl-9a,4a-(iminoethano)-9H-carbazole] |  | no detectable antagonist activity against morphine | inhibited the contractions of the ileum, but was of weaker potency | Naloxone had little antagonist activity |  |  |  |  |  |
| C=CCN1CCC23CCCCC12N(C)c1ccc(O)cc13 (racemic) [6-Hydroxy-9-methyl-10-allyl-echiboline, 1,2,3,4-tetrahydro-6-hydroxy-9-methyl-10-allyl-9a,4a-(iminoethano)-9H-carbazole] |  | no antagonist activity against morphine |  | antagonized by naloxone; also recorded: relative lack of potency of naloxone as an antagonist | interaction with a different receptor population than that with which morphine interacts; also recorded: likely to be the "kappa" receptor | possesses opioid agonist activity in vitro |  |  | IC50, inhibition of contractions of the ileum [2]: 0.3 µg/mL; potency relative to morphine [2]: about ten times less potent than morphine |
| CN1CCC23CCCCC12N(C)c1ccc(O)cc13 (racemic) [6-hydroxy-9,10-dimethyl-echiboline, 1,2,3,4-tetrahydro-6-hydroxy-9,10-dimethyl-9a,4a-(iminoethano)-9H-carbazole] | antagonised by naloxone |  | similarly inhibited the electrically-induced contractions | antagonised by naloxone in a concentration-dependent manner | differs from that of morphine | possessed opiate-like activity | at no stage was an excitatory stage seen; also recorded: No enhancement of contractions was seen | no evidence of cholinesterase inhibition | anti-cholinesterase inhibitory activity [3]: no evidence of cholinesterase inhibitory activity; anti-cholinesterase inhibitory activity ([3]; listed as echiboline derivative): no detectable anti-cholinesterase inhibitory activity; antagonism by naloxone compared with morphine [4]: some ten times less effective as an antagonist than against morphine; log dose ratio (±S.D.), shift by naloxone, vas deferens [4, 8]: 0.87 (+0.19); log dose ratio (±S.D.), shift by naloxone, vas deferens ([4]; Naloxone 500 ng/ml): 1.66 (+0.13); ED50 ([1]; sc, mice, subcutaneous injection, 95% confidence intervals): 1.71 mg/kg; potency relative to morphine in mice ([1]; mouse, in vivo, sc): somewhat greater than that predicted from the in vitro tests; ED50 [5]: 0.23 mg/kg; log dose ratio (±S.D.), shift by naloxone, ileum ([2]; Naloxone 5 ng/ml): 0.91 (+0.27); log dose ratio (±S.D.), shift by naloxone, ileum [2, 8]: 1.54 (+0.22); EC50 (±SD) Guinea-pig ileum ([2]; Table 1, mean of not less than 12 determinations, S.D. range on next line): 0.0335 µg/mL (≈ 0.13 µM); inhibition, some individual values ([2]; guinea pig ileum, individual values): over 90% |
| CN1CCC2(C)c3cc(O)ccc3N(C)C12 (single isomer, unassigned) [eseroline, reference compound] |  |  | concentration-dependent inhibition of contractions | antagonised by naloxone in a concentration-dependent manner |  | has opiate activity | enhanced electrically-induced contractions of the muscle | evidence for anti-cholinesterase activity was also seen | anticholinesterase activity [6]: retains undesirable anticholinesterase activity; analgesic properties [7]: approximately equipotent with morphine; maximum inhibition of electrically induced contractions ([2]; guinea pig ileum): about 50% |
| CN1CC[C@]23c4c5ccc(O)c4O[C@H]2[C@@H](O)C=C[C@H]3[C@H]1C5 [morphine, reference compound] |  |  | familiar inhibition of the preparation | naloxone antagonism was confirmed |  |  |  |  | times more potent than (±)-6-hydroxy-9,10-dimethyl-echiboline ([4]; mouse vas deferens, from EC50 values): 3.6 times; ED50 ([1]; sc): 3.22 mg/kg; times more potent than (±)-6-hydroxy-9,10-dimethyl-echiboline ([2]; guinea pig ileum, from EC50 values): 2.8 times |
